Source: patent US9611301B2, “GB virus C (hepatitis G virus) E2 glycoprotein as an immunomodulatory agent” (priority 2012, dated 2017)
Where no end group is shown, it is not given here.

Experiments:
Lck = molecular target: T1, Lck (Homo sapiens, UniProt P06239); assay: Lck mediated phosphorylation of TAT-peptides (Lck kinase enzyme system); format: biochemical; details: in vitro
T1 construct: purchased Promega
Description: CD45 activity was measured using CD45 tyrosine phosphatase assay kit (Enzo Life Sciences) following the manufacturer's instructions. Purified recombinant GBV-C E2 protein expressed in CHO cells was described previouslyl^2. Enzymatic activity was evaluated with or without GBV-C E2 protein (10 μg) or human IgG control (10 μg; Sigma) at room temperature. Following 1 hour incubation, the reaction was terminated and absorbance determined by a Microplate reader (Model 680, Bio-Rad) at OD620nm. Phosphorylation of GBV-C E2 protein by Lck was measured by incubating recombinant E2 protein (40 μg) with or without human Lck ([…]; R&D Systems) as recommended by the manufacturer. Samples were subjected to immunoblot analysis as described above. Phosphorylation was determined by immunoblot analysis with phosphotyrosine antibodies (Invitrogen) and GBV-C E2 protein was identified using an anti-E2 monoclonal antibody. Lck mediated phosphorylation of GBV-C E2 derived TAT-peptides were performed using Lck kinase enzyme system (Promega) as recommended by the manufacturer.

Healthy donors PBMCs = assay: IL-2 production by PBMCs incubated with synthetic TAT peptides, anti-CD3/CD28 stimulation; format: cell-based, human; details: 20 μg peptide over night, anti-CD3/CD28 500 ng/ml, 24 hrs
Description: pLAT (Y191) was quantified using PathScan ELISA kit (Cell Signaling Technology) and IL-2 cytokine released into cell culture supernatant was quantified using human IL-2 quantikine ELISA kit (R&D Systems) according to manufacturer's instructions.
(§1) FITC labelled synthetic peptides with an N-terminal HIV TAT protein transduction domain (TAT) alone (GGGGGRKKRRQRRR; SEQ ID NO: 13), or with the GBV-C E2 aa 86-101 ([…]; SEQ ID NO: 14; Y87), or the Y87H mutation ([…]; SEQ ID NO: 15) were obtained from Ana Spec, Inc. Peptides with the TAT domain and GBV-C E2 aa 276-292 (GGAGLTGGRYEPLVRRC; SEQ ID NO: 16), or the same amino acids in a scrambled order (GCRCARGVLLTPGEGYF; SEQ ID NO: 17) as previously described^28. Peptides were dissolved in RPMI with 10% DMSO. The TAT domain enhances cellular uptake of the peptide. Healthy donors PBMCs (1×10^6 cells/ml) were incubated with 20 μg peptide at 37° C. over night before stimulation with 500 ng/ml anti-CD3/CD28. IL-2 release and cellular receptor expression was analyzed 24 hrs later.

[1] = tested on: primary human CD4+ and CD8+ T cells; assay: CD69 and CD25 surface expression on CD4+ and CD8+ T cells incubated with synthetic TAT peptides; format: cell-based; details: compared to mutant or control peptide
Description: Cellular receptor expression was measured using the following antibodies per manufacturer's recommendation: CD69 (PE), CD25 (APC), CD45 (PE) (BD Biosciences). Cells were incubated on ice for 1 hour, washed 3 times with PBS and fixed in 2% paraformaldehyde (Polysciences). Data was acquired on BD LSR II flow cytometer using single stained CompBeads (BD Biosciences) for compensation. At least 10,000 total events were collected in each experiment and the FlowJo program (Tree Star Inc.) was used for data analysis. All flow cytometry experiments were repeated at least three times with consistent results.
as §1

T1 sequence (P06239 whole entry, species assumed): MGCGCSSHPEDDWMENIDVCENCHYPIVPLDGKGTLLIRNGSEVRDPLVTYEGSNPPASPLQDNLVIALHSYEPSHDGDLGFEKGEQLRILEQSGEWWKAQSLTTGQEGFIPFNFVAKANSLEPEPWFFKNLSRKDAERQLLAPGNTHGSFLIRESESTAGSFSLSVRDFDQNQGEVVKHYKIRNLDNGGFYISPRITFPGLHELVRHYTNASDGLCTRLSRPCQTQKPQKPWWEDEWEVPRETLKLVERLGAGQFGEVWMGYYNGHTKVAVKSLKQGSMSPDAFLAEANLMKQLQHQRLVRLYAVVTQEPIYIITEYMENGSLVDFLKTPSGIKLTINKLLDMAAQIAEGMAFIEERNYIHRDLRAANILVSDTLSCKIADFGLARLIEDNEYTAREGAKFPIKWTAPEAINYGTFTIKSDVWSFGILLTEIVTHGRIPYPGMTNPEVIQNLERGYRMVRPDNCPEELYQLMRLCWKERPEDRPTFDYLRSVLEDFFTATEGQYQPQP

GGAGLTGGRYEPLVRRC [TAT-276-292]
Lck mediated phosphorylation of peptide (Lck substrate) (Lck): served as a Lck substrate in vitro

GGGGGRKKRRQRRR (also: FITC label, site not given here) [TAT control, HIV TAT protein transduction domain alone; negative control, reference compound]
IL-2 production (Healthy donors PBMCs): not

GGGGGRKKRRQRRRVYGSVSVTCVWGS (also: FITC label, site not given here) [TAT-Y87, synthetic peptide, N-terminal HIV TAT protein transduction domain with GBV-C E2 aa 86-101]
surface expression of CD25 [1]: significantly reduced | surface expression of CD69 [1]: significantly reduced | IL-2 production (Healthy donors PBMCs): inhibited | Lck mediated phosphorylation of peptide (Lck substrate) (Lck): phosphorylated by Lck in a dose-dependent manner

GGGGGRKKRRQRRRVHGSVSVTCVWGS (also: FITC label, site not given here) [TAT-Y87H, TAT peptide with the Y87H mutation]
IL-2 production (Healthy donors PBMCs): not
